In brackets after ≈: the same amount, converted by molar mass. Where two headings read alike, the source gives them in different places.
Key:
[1] = test system: Streptococci; experiment: MIC, all tested Streptococci; type: cell-based; settings: text summary of Table 4; read-out: MICs against all tested Streptococci
Experimental: (§1) Compounds were twofold serially diluted (100–0.2 μg/mL) across a 96-well plate in 100 μL of media used for the specific organism (Table S4). For anaerobes, plates were incubated anaerobically at 37 °C for 1 h and then inoculated with approximately 10^5 to 10^6 CFU/well. Plates were incubated at 37 °C for up to 48 h, and MICs were read by visual inspection.

[2] = test system: S. salivarius HM-121; experiment: Growth in FAS-II inhibitor with or without exogenous fatty acids; type: cell-based, Streptococcus salivarius; settings: fatty acid mixture of Table S2
Experimental: To plates containing twofold serial dilutions of compounds, exponential phase cultures were added to a final OD600nm of 0.1. Plates containing F. nucleatum in Columbia broth were incubated at 37 °C inside of a Tecan Infinite 200 Pro, which was inside an anaerobic chamber; growth kinetics for Streptococcus spp. in brain heart infusion broth were done aerobically in the same Tecan instrument.

[3] = Cytotoxicity against HCT116 cells (resazurin viability); type: cell-based; settings: human, HCT116 colorectal carcinoma cells, maximum tested concentration 100 μg/mL
Experimental: This was done as described[36] using colorectal carcinoma HCT116 and Vero epithelial cells cultured at 37 °C in 5% CO2 in Dulbecco’s modified Eagle’s medium (DMEM) with 4.5 g/L glucose and L-glutamine. The medium was supplemented with 10% v/v FetalGro (Rocky Mountain Biologicals). Approximately 25,000/well were aliquoted into black 96-well plates (Greiner Bio-One) and incubated overnight, before being resuspended in DMEM supplemented with 20% Gibco KnockOut Serum Replacement (Thermo Fisher Scientific). […] Cell viability was analyzed using resazurin as described.[36]

[4] = Cytotoxicity against Vero cells (resazurin viability); type: cell-based; settings: monkey, Vero epithelial cells, maximum tested concentration 100 μg/mL
Experimental: This was done as described[36] using colorectal carcinoma HCT116 and Vero epithelial cells cultured at 37 °C in 5% CO2 in Dulbecco’s modified Eagle’s medium (DMEM) with 4.5 g/L glucose and L-glutamine. The medium was supplemented with 10% v/v FetalGro (Rocky Mountain Biologicals). Approximately 25,000/well were aliquoted into black 96-well plates (Greiner Bio-One) and incubated overnight, before being resuspended in DMEM supplemented with 20% Gibco KnockOut Serum Replacement (Thermo Fisher Scientific). Compounds (100–1.6 μg/mL) were then added to the cells and incubated for 24 h at 37 °C and 5% CO2. Cell viability was analyzed using resazurin as described.[36]

[5] = test system: Streptococcus mitis; experiment: MIC, digestive tract panel; type: cell-based; settings: ENR FabK
Experimental: as §1

[6] = test system: F. vincentii 49256; experiment: MIC, digestive tract panel; type: cell-based; settings: ENR FabK
Experimental: as §1

[7] = test system: Bifidobacterium breve; experiment: MIC, digestive tract panel; type: cell-based; settings: Type I FAS
Experimental: as §1

[8] = test system: Clostridium sp. MSTE9; experiment: MIC, digestive tract panel; type: cell-based; settings: ENR FabK
Experimental: as §1

[9] = test system: P. gingivalis F0566; experiment: MIC, digestive tract panel; type: cell-based; settings: Porphyromonas gingivalis, ENR FabK
Experimental: as §1

[10] = test system: Streptococcus sanguinis; experiment: MIC, digestive tract panel; type: cell-based; settings: ENR FabK
Experimental: as §1

[11] = test system: Streptococcus downei; experiment: MIC, digestive tract panel; type: cell-based; settings: ENR FabK
Experimental: as §1

[12] = test system: Streptococcus pyogenes; experiment: MIC, digestive tract panel; type: cell-based; settings: ENR FabK
Experimental: as §1

[13] = test system: P. gingivalis F0569; experiment: MIC, digestive tract panel; type: cell-based; settings: Porphyromonas gingivalis
Experimental: as §1

[14] = test system: Streptococcus sp. SPAR10; experiment: MIC, digestive tract panel; type: cell-based; settings: ENR FabK
Experimental: as §1

[15] = test system: F. nucleatum 25586; experiment: MIC, digestive tract panel; type: cell-based; settings: Fusobacterium nucleatum, ENR FabK
Experimental: as §1

[16] = test system: P. gingivalis 33277; experiment: MIC, digestive tract panel; type: cell-based; settings: Porphyromonas gingivalis, ENR FabK
Experimental: as §1

[17] = test system: Streptococcus sp. CMW7705B; experiment: MIC, digestive tract panel; type: cell-based; settings: ENR FabK
Experimental: as §1

[18] = test system: P. gingivalis F0185; experiment: MIC, digestive tract panel; type: cell-based; settings: Porphyromonas gingivalis, ENR FabK
Experimental: as §1

[19] = test system: Prevotella denticola; experiment: MIC, digestive tract panel; type: cell-based; settings: ENR FabI
Experimental: as §1

[20] = test system: F. necrophorum 25286; experiment: MIC, digestive tract panel; type: cell-based; settings: Fusobacterium necrophorum, ENR FabK
Experimental: as §1

[21] = test system: Actinomyces F0386; experiment: MIC, digestive tract panel; type: cell-based; settings: Type I FAS
Experimental: as §1

[22] = test system: F. periodonticum 33693; experiment: MIC, digestive tract panel; type: cell-based; settings: ENR FabK
Experimental: as §1

[23] = test system: F. periodonticum 2_1_31; experiment: MIC, digestive tract panel; type: cell-based; settings: ENR FabK
Experimental: as §1

[24] = test system: Propionibacterium acidifaciens; experiment: MIC, digestive tract panel; type: cell-based; settings: ENR FabI
Experimental: as §1

[25] = test system: Streptococcus salivarius; experiment: MIC, digestive tract panel; type: cell-based; settings: ENR FabK
Experimental: as §1

[26] = test system: Bacteroides ovatus; experiment: MIC, digestive tract panel; type: cell-based; settings: ENR FabI/FabK
Experimental: as §1

[27] = test system: F. nucleatum 23726; experiment: MIC against F. nucleatum 23726; type: cell-based, Fusobacterium nucleatum; settings: Fusobacterium nucleatum, 23726, F. nucleatum 23726 wild-type; three biological replicates; read-out: MIC Fn 23726
Experimental: as §1

With `CS(=O)(=O)c1ccc2nc(NC(=O)NCc3nc(-c4ccc(Br)cc4)c[nH]3)sc2c1` [Compound 681, 1-((4-(4-bromophenyl)-1H-imidazole-2-yl)methyl)-3-(6-(methylsulfonyl)benzo[d]thiazol-2-yl)urea] as the compound, how does the MIC [1] read?
Its MIC is under 1.6 µg/mL.

What about the “Increase in biomass (OD600nm) in the presence of inhibitor and exogenous fatty acids” value [2] of the same compound?
The value was “twofold”.

What about the IC50 at 24 h [3] of the same compound?
Its IC50 at 24 h is over 100 µg/mL.

What about the IC50 at 24 h [4] of the same compound?
Its IC50 at 24 h is over 100 µg/mL.

And the MIC [5]?
The MIC was under 1.6 µg/mL.

And the MIC [6]?
The MIC was 1.6 µg/mL (≈ 3.16 µM).

What about the MIC [7] of the same compound?
Its MIC is over 100 µg/mL.

What about the MIC ([7]; read-out: MIC) of the same compound?
The MIC was over 100 µg/mL.

What about the MIC [8] of the same compound?
Its MIC is over 100 µg/mL.

What about the MIC [9] of the same compound?
The MIC was 3.1 µg/mL (≈ 6.12 µM).

What about the MIC [10] of the same compound?
The MIC was under 1.6 µg/mL.

What about the MIC [11] of the same compound?
Its MIC is under 1.6 µg/mL.

And the MIC [12]?
Its MIC is under 1.6 µg/mL.

And the MIC [13]?
Its MIC is over 100 µg/mL.

What about the MIC [14] of the same compound?
Its MIC is under 1.6 µg/mL.

And the MIC [15]?
The MIC was 0.8 µg/mL (≈ 1.58 µM).

What about the MIC [16] of the same compound?
The MIC was over 100 µg/mL.

And the MIC [17]?
The MIC was under 1.6 µg/mL.

What about the MIC [18] of the same compound?
The MIC was 6.3 µg/mL (≈ 12.4 µM).

What about the MIC [19] of the same compound?
Its MIC is over 100 µg/mL.

And the MIC [20]?
Its MIC is 6.3 to 12.5 µg/mL (≈ 12.4 to 24.7 µM).

What about the MIC [21] of the same compound?
The MIC was over 100 µg/mL.

And the MIC [22]?
The MIC was 0.8 µg/mL (≈ 1.58 µM).

What about the MIC [23] of the same compound?
Its MIC is 0.8 µg/mL (≈ 1.58 µM).

And the MIC [24]?
Its MIC is 6.3 µg/mL (≈ 12.4 µM).

And the MIC [25]?
Its MIC is under 1.6 µg/mL.

And the MIC [26]?
The MIC was over 100 µg/mL.

What about the MIC ([26]; read-out: MIC) of the same compound?
The MIC was over 100 µg/mL.

What about the MIC [27] of the same compound?
The MIC was 0.4 µg/mL (≈ 0.79 µM).

Reference: paper PMC11091888, “Evaluation of Fusobacterium nucleatum Enoyl-ACP Reductase (FabK) as a Narrow-Spectrum Drug Target” (ACS Infectious Diseases, 2024)
